From ChEMBL document CHEMBL1201862, “PubChem BioAssay data set” (2004)
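Test compounds were applied to cells in 96-well plates for 48 hours at 5 doses. The concentration for 50% growth inhibition is given as GI50.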 Activity calls are given as the source filed them. Rule as the data show it: active = GI50 up to about 1.1 µM and inactive = higher.

Assays:
Assay in all cases: growth of human tumour cells (NCI), 48 h
SF-295 = tested on: SF-295
SR = tested on: SR
MDA-N = tested on: MDA-N
BT-549 = tested on: BT-549
HT-29 = tested on: HT-29
COLO 205 = tested on: COLO 205
U-251 = tested on: U-251
HOP-62 = tested on: HOP-62
SW-620 = tested on: SW-620
NCI-H460 = tested on: NCI-H460
UACC-62 = tested on: UACC-62
SF-539 = tested on: SF-539
TK-10 = tested on: TK-10
RPMI-8226 = tested on: RPMI-8226
KM12 = tested on: KM12
NCI-H522 = tested on: NCI-H522
SK-MEL-2 = tested on: SK-MEL-2
CCRF-CEM = tested on: CCRF-CEM
MDA-MB-435 = tested on: MDA-MB-435
IGROV-1 = tested on: IGROV-1

SMILES | GI50 (SF-295) | GI50 (SR) | GI50 (MDA-N) | GI50 (BT-549) | GI50 (HT-29) | GI50 (COLO 205) | GI50 (U-251) | GI50 (HOP-62) | GI50 (SW-620) | GI50 (NCI-H460) | GI50 (UACC-62) | GI50 (SF-539) | GI50 (TK-10) | GI50 (RPMI-8226) | GI50 (KM12) | GI50 (NCI-H522) | GI50 (SK-MEL-2) | GI50 (CCRF-CEM) | GI50 (MDA-MB-435) | GI50 (IGROV-1)
Cc1ccc2[nH]/c(=N/S(=O)(=O)c3cc(C)c(Cl)cc3S)[nH]c2c1 | 49.5 µM (inactive) | 31.6 µM (inactive) | 87.5 µM (inactive) | > 100 µM (inactive) | > 100 µM (inactive) | 58.5 µM (inactive) | 24 µM (inactive) | 34.8 µM (inactive) | 43.8 µM (inactive) | 16.4 µM (inactive) | > 100 µM (inactive) | 74.3 µM (inactive) | > 100 µM (inactive) | 40 µM (inactive) | 41.6 µM (inactive) | > 100 µM (inactive) | 78.3 µM (inactive) | 21.4 µM (inactive) | 28.4 µM (inactive) | 34.4 µM (inactive)
O=c1[nH]c(=O)n(C2CC(O)C(CS)O2)cc1F (stereo not given) | 47 µM (inactive) | 56.6 µM (inactive) | 86.9 µM (inactive) | > 100 µM (inactive) | 66.1 µM (inactive) | 52.5 µM (inactive) | 72.8 µM (inactive) | 37.2 µM (inactive) | > 86.1 µM (inactive) | 6.87 µM (inactive) | 65.2 µM (inactive) | 11 µM (inactive) | 83.2 µM (inactive) | 67 µM (inactive) | 99.1 µM (inactive) | > 87.1 µM (inactive) | > 100 µM (inactive) | 30.5 µM (inactive) | > 92.7 µM (inactive) | > 100 µM (inactive)
CCOC(=O)C1(C(=O)OCC)C[C@H]2CON=C2[C@@H]1c1ccc(C(F)(F)F)cc1 | 41.5 µM (inactive) | 35.4 µM (inactive) | 45.7 µM (inactive) | 44.7 µM (inactive) | 32 µM (inactive) | 26.2 µM (inactive) | 64.7 µM (inactive) | 21.9 µM (inactive) | 68.1 µM (inactive) | 42.9 µM (inactive) | 96.2 µM (inactive) | > 100 µM (inactive) | 67 µM (inactive) | 26.5 µM (inactive) | 82.6 µM (inactive) | 24.7 µM (inactive) | 62.2 µM (inactive) | 7.96 µM (inactive) | 38.6 µM (inactive) | 12.5 µM (inactive)
O=C(NCCCNCCCNC(=O)c1cc(-c2ccccc2)nc2ccccc12)c1cc(-c2ccccc2)nc2ccccc12 | 1.88 µM (inactive) | 1.67 µM (inactive) | 1.89 µM (inactive) | 10.2 µM (inactive) | 1.75 µM (inactive) | 1.9 µM (inactive) | 1.69 µM (inactive) | 1.11 µM (active) | 2.39 µM (inactive) | 1.75 µM (inactive) | 1.93 µM (inactive) | 2.47 µM (inactive) | 1.91 µM (inactive) | 1.72 µM (inactive) | 1.99 µM (inactive) | 2.01 µM (inactive) | 2 µM (inactive) | 1.63 µM (inactive) | 1.64 µM (inactive) | 1.88 µM (inactive)
